Reference: paper PMC9133015 (Nature Communications, 2022)
Values joined by “and” are separate entries in the source; they are usually repeats but may differ in a detail not shown here. Equal values may be shown once.

What was measured:
Test in all cases: Kinase inhibitor specificity profiling (Reaction Biology Corporation)
Assay type in all cases: biochemical
Set-up in all cases: % Enzyme Activity (relative to DMSO controls): concentration or dose not given beside the values
[1] = molecular target: T1, panel of 370 protein kinases (Homo sapiens, UniProt O95382); settings: 2 h, kinase MEKK6; read-out: % Enzyme Activity (relative to DMSO controls)
T1 construct: purchased Reaction Biology Corporation (assay service)

[2] = molecular target: T2, panel of 370 protein kinases (Homo sapiens, UniProt P06239); settings: 2 h, kinase LCK; read-out: % Enzyme Activity (relative to DMSO controls)
T2 construct: purchased Reaction Biology Corporation (assay service)

[3] = molecular target: T3, panel of 370 protein kinases (Homo sapiens, UniProt P10721); settings: 2 h, kinase c-Kit; read-out: % Enzyme Activity (relative to DMSO controls)
T3 construct: purchased Reaction Biology Corporation (assay service)

[4] = molecular target: T4, panel of 370 protein kinases (Homo sapiens, UniProt P27361); settings: 2 h, kinase ERK1; read-out: % Enzyme Activity (relative to DMSO controls)
T4 construct: purchased Reaction Biology Corporation (assay service)

[5] = molecular target: T5, panel of 370 protein kinases (Homo sapiens, UniProt P36896); settings: 2 h, kinase ALK4/ACVR1B; read-out: % Enzyme Activity (relative to DMSO controls)
T5 construct: purchased Reaction Biology Corporation (assay service)

[6] = molecular target: T6, panel of 370 protein kinases (Homo sapiens, UniProt P43405); settings: kinase SYK
T6 construct: purchased Reaction Biology Corporation (assay service)

[7] = molecular target: T7, panel of 370 protein kinases (Homo sapiens, UniProt P45984); settings: kinase JNK2
T7 construct: purchased Reaction Biology Corporation (assay service)

[8] = molecular target: T8, panel of 370 protein kinases (Homo sapiens, UniProt P49674); settings: 2 h, kinase CK1epsilon; read-out: % Enzyme Activity (relative to DMSO controls)
T8 construct: purchased Reaction Biology Corporation (assay service)

[9] = molecular target: T9, panel of 370 protein kinases (Homo sapiens, UniProt Q12851); settings: 2 h, kinase GCK/MAP4K2; read-out: % Enzyme Activity (relative to DMSO controls)
T9 construct: purchased Reaction Biology Corporation (assay service)

[10] = molecular target: T10, panel of 370 protein kinases (Homo sapiens, UniProt Q13557); settings: 2 h, kinase CAMK2d; read-out: % Enzyme Activity (relative to DMSO controls)
T10 construct: purchased Reaction Biology Corporation (assay service)

[11] = molecular target: T11, panel of 370 protein kinases (Homo sapiens, UniProt Q14012); settings: 2 h, kinase CAMK1a; read-out: % Enzyme Activity (relative to DMSO controls)
T11 construct: purchased Reaction Biology Corporation (assay service)

[12] = molecular target: T12, panel of 370 protein kinases (Homo sapiens, UniProt Q15139); settings: 2 h, kinase PKCmu/PRKD1; read-out: % Enzyme Activity (relative to DMSO controls)
T12 construct: purchased Reaction Biology Corporation (assay service)

[13] = molecular target: T13, panel of 370 protein kinases (Homo sapiens, UniProt Q56UN5); settings: 2 h, kinase YSK4/MAP3K19; read-out: % Enzyme Activity (relative to DMSO controls)
T13 construct: purchased Reaction Biology Corporation (assay service)

[14] = molecular target: T14, panel of 370 protein kinases (Homo sapiens, UniProt Q5VT25); settings: 2 h, kinase MRCKa/CDC42BPA; read-out: % Enzyme Activity (relative to DMSO controls)
T14 construct: purchased Reaction Biology Corporation (assay service)

[15] = molecular target: T15, panel of 370 protein kinases (Homo sapiens, UniProt Q6P5Z2); settings: kinase PKN3/PRK3
T15 construct: purchased Reaction Biology Corporation (assay service)

[16] = molecular target: T16, panel of 370 protein kinases (Homo sapiens, UniProt Q76MJ5); settings: 2 h, kinase ERN2/IRE2; read-out: % Enzyme Activity (relative to DMSO controls)
T16 construct: purchased Reaction Biology Corporation (assay service)

[17] = molecular target: T17, panel of 370 protein kinases (Homo sapiens, UniProt Q7L7X3); settings: 2 h, kinase TAOK1; read-out: % Enzyme Activity (relative to DMSO controls)
T17 construct: purchased Reaction Biology Corporation (assay service)

[18] = molecular target: T18, panel of 370 protein kinases (Homo sapiens, UniProt Q8TF76); settings: 2 h, kinase Haspin; read-out: % Enzyme Activity (relative to DMSO controls)
T18 construct: purchased Reaction Biology Corporation (assay service)

[19] = molecular target: T19, panel of 370 protein kinases (Homo sapiens, UniProt Q96KB5); settings: 2 h, kinase PBK/TOPK; read-out: % Enzyme Activity (relative to DMSO controls)
T19 construct: purchased Reaction Biology Corporation (assay service)

[20] = molecular target: T20, panel of 370 protein kinases (Homo sapiens, UniProt Q9NY57); settings: 2 h, kinase STK32B/YANK2; read-out: % Enzyme Activity (relative to DMSO controls)
T20 construct: purchased Reaction Biology Corporation (assay service)

[21] = molecular target: T21, panel of 370 protein kinases (Homo sapiens, UniProt Q9Y572); settings: 2 h, kinase RIPK3; read-out: % Enzyme Activity (relative to DMSO controls)
T21 construct: purchased Reaction Biology Corporation (assay service)
T21 sequence (Q9Y572 whole entry): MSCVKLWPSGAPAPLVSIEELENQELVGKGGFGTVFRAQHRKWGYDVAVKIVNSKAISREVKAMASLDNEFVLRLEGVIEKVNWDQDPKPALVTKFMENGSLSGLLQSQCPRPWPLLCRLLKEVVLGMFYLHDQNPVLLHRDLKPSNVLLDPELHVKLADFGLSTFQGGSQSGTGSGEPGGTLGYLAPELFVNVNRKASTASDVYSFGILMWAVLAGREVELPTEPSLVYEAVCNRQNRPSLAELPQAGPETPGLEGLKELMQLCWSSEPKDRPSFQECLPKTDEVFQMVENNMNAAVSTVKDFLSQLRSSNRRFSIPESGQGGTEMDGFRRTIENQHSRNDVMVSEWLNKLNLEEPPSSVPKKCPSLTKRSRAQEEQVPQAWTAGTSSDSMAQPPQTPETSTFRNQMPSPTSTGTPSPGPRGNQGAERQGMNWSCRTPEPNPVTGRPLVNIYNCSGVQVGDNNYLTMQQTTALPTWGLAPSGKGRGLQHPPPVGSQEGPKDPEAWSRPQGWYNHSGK

T7 sequence (P45984 whole entry): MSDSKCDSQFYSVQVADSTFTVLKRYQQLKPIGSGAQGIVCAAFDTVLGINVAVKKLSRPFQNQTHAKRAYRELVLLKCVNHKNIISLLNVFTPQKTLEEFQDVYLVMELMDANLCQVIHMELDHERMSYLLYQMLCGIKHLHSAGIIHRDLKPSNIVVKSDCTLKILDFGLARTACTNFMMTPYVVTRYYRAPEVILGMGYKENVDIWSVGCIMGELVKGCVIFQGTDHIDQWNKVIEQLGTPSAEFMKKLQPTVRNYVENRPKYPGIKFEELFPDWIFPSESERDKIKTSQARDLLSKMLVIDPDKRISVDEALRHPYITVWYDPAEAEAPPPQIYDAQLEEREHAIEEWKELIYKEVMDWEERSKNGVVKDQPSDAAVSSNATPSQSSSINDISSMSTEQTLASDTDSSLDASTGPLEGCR
T15 sequence (Q6P5Z2 whole entry): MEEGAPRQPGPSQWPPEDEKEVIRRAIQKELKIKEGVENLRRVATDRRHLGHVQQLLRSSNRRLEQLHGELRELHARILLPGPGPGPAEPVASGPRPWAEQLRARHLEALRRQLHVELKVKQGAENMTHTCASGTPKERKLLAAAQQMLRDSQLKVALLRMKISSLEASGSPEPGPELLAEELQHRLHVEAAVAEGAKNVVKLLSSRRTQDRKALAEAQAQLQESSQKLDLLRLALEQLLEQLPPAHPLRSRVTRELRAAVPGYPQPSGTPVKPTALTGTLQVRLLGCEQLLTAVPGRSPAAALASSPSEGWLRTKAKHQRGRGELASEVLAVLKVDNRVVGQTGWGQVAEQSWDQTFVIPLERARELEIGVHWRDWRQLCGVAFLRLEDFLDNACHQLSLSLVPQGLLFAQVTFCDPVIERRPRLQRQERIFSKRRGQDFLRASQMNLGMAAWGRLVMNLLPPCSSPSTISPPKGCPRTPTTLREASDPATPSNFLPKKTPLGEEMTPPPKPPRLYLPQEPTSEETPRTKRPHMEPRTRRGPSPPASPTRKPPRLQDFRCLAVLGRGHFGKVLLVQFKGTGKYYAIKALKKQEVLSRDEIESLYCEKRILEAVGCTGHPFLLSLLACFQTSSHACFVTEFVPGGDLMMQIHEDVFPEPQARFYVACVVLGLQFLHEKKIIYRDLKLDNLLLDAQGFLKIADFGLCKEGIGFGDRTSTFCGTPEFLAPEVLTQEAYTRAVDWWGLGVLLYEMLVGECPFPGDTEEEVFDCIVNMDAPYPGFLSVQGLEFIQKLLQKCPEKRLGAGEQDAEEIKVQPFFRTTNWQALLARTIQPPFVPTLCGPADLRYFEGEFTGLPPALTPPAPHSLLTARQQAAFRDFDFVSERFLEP
T19 sequence (Q96KB5 whole entry): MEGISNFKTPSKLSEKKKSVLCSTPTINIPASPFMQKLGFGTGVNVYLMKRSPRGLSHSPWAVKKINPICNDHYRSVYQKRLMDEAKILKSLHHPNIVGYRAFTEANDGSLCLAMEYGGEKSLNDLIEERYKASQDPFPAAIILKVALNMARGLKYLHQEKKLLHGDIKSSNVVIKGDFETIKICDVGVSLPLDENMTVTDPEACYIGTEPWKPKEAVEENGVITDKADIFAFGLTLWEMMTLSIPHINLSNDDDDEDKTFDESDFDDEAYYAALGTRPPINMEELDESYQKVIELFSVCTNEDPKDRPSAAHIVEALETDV
T3 sequence (P10721 26-976): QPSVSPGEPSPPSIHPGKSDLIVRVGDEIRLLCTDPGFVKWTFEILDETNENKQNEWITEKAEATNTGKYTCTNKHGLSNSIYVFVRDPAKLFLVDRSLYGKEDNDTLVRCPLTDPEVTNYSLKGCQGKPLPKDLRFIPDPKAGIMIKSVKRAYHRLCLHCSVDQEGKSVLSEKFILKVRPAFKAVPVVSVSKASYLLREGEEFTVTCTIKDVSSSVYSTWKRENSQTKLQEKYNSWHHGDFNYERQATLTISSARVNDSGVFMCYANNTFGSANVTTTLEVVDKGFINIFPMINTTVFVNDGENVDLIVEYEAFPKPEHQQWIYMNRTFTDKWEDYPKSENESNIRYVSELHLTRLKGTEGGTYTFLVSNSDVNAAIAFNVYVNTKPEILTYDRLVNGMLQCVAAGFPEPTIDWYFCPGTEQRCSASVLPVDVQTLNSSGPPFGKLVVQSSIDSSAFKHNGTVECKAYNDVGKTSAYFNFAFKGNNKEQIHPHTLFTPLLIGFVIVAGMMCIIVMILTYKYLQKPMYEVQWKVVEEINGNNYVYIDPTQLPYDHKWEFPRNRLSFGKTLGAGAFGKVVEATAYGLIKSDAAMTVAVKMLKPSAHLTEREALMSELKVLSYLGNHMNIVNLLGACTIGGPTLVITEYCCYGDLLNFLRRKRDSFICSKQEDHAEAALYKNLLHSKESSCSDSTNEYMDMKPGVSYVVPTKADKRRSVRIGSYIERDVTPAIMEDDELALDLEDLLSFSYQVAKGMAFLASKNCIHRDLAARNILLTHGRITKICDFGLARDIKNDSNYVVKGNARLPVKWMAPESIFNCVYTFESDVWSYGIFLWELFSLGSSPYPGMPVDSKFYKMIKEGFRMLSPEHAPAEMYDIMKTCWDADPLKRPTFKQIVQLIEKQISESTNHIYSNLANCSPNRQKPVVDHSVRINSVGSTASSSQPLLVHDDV
T10 sequence (Q13557 whole entry): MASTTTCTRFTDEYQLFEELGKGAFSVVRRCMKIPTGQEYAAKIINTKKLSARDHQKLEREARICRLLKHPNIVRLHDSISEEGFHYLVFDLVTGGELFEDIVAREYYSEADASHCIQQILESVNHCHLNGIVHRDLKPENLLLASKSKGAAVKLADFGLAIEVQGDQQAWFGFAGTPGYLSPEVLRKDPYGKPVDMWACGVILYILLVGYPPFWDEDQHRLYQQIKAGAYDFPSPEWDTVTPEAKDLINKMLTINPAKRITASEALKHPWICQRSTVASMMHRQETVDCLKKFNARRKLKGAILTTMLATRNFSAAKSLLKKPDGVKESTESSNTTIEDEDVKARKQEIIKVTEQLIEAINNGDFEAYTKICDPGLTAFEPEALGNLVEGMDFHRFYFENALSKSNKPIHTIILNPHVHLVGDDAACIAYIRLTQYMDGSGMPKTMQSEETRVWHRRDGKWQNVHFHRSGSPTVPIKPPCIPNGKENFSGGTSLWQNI
T12 sequence (Q15139 whole entry): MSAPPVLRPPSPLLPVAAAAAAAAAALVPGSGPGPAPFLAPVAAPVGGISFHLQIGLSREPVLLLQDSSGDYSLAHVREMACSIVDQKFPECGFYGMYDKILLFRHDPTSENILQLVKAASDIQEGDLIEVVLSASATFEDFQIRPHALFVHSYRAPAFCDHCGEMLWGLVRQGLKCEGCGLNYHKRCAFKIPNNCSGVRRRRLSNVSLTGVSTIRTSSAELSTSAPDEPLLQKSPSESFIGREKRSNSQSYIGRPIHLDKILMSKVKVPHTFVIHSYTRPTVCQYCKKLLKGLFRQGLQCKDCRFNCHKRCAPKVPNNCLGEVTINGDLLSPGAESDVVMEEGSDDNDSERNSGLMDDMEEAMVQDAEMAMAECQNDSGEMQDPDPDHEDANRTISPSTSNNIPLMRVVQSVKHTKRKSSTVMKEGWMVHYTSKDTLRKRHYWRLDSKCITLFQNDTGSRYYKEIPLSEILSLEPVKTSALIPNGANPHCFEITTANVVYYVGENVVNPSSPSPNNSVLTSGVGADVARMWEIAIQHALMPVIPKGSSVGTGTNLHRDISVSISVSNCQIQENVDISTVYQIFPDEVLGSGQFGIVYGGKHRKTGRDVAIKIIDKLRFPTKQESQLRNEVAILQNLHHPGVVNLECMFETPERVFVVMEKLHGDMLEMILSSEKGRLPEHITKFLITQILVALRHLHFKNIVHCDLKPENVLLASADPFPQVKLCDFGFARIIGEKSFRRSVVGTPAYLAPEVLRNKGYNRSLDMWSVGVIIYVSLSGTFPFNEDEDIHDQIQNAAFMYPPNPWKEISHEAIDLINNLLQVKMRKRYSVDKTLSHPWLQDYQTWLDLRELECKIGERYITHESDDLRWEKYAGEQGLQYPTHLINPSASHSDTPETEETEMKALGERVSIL
T20 sequence (Q9NY57 whole entry): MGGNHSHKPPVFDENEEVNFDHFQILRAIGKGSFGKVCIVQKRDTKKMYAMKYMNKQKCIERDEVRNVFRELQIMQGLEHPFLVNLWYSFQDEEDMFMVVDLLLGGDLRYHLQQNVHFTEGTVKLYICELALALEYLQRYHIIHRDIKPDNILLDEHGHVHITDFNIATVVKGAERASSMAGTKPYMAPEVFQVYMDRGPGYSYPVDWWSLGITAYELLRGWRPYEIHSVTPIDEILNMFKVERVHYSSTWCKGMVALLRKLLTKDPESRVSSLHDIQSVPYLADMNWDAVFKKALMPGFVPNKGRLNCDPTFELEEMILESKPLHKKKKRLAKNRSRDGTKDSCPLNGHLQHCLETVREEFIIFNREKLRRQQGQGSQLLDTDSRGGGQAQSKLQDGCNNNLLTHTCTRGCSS

With CCN1CCN(C(=O)c2ccc(Nc3ncc(F)c(-c4ccc5nc(N(C)C)sc5c4)n3)nc2)CC1 [YK-2-69] the remaining activity at 1 µM [1] was 111%, the remaining activity at 1 µM [2] was 101% and the remaining activity at 1 µM [3] was 94%. For the same compound, the remaining activity at 1 µM [4] was 101%, the remaining activity at 1 µM [5] was 102% and the “% Enzyme Activity (relative to DMSO controls)” value [6] was 98.88% and 95.73%. The “% Enzyme Activity (relative to DMSO controls)” value [7] was 83.83% and 82.64%, the remaining activity at 1 µM [8] was 111% and the remaining activity at 1 µM [9] was 96%. The remaining activity at 1 µM [10] was 92.8%, the remaining activity at 1 µM [11] was 101% and the remaining activity at 1 µM [12] was 89.6%. For the same compound, the remaining activity at 1 µM [13] was 97.8%, the remaining activity at 1 µM [14] was 111% and the “% Enzyme Activity (relative to DMSO controls)” value [15] was 103.56% and 103.10%. For the same compound, the remaining activity at 1 µM [16] was 88.5%, the remaining activity at 1 µM [17] was 108% and the remaining activity at 1 µM [18] was 99%. It also gave a remaining activity at 1 µM [19] of 108%, a remaining activity at 1 µM [20] of 103% and a remaining activity at 1 µM [21] of 102%.
